Assays:
[1] = target: KDM1A (Homo sapiens, UniProt O60341); experiment: MALDI-TOF mass spectrometry of FAD-ORY-2001 adducts; format: binding
Description: The sample was initially purified by reversed phase chromatography in a ZipTipC18 pipette tip (Millipore, USA) wet using column and equilibrated with 0.1% TFA. The sample was bound to the column by repeated aspiring and dispensing to achieve maximum binding. The ZipTip pipette tip was washed three times with 0.1% TFA and eluted in 4 µl. of 50 % ACN/ 0.1% TFA. 1 µl of eluted sample was loaded onto an AnchorChip MALDI target (Bruker, Germany); 2 µl. of matrix solution (0.3 mg/ml HCCA -alpha-cyano-4-hydroxycinamic acid in EtOH/acetone 2:1) was added and the mixture was allowed to dry at room temperature. The sample preparations were analyzed in an AutoFlex Speed MALDI TOF/TOF mass spectrometer (Bruker, Germany), equipped with a Nd:YAG laser. MS spectra were acquired in Reflector mode, with either positive or negative polarity. MSMS post source-decay fragmentation spectra of selected precursor ions were obtained using the LIFT module (Bruker, Germany).

[2] = tested on: isolated Sprague-Dawley rats; experiment: Elevated Plus Maze, rat isolation rearing model; format: in vivo; conditions: 0.16 or 0.48 mg/kg/day in drinking water, approximately 1 month
Description: Sprague Dawley Rats: Right after the weaning (post natal day 21-23), 72 Sprague-Dawley male rats (Charles River, bred in the UAB Animal facility) were divided in two groups: Control (N = 18), maintained 3-4 animals per cage; Isolated (N = 54), 1 animal per cage ([…] 1291H Eurostandard type III with ECOPURE CHIPS 6 bedding material, Harlan). Animals were maintained at 21 ± 2 °C controlled temperature in a 12 hr light / dark cycle (lights on at 8:00 am) with ad libitum access to food (2014 TEKLAD, Harlan) and water. […] Control animals were treated with vehicle. The administration route was drinking water and the vehicle 1.8% 2-Hydroxypropyl-b-cyclodextrin. Drug concentration was adjusted weekly by body weight and water consumption. During the last week of treatment, all animals were tested in the EPM and, on a different day, in the RI test (N = 12 / group). […]
The EPM consisted of four arms at right angles to each other connected to a central square and maintained elevated 50 cm above the floor. […] The animal was placed facing a closed arm, and its movements were video-recorded for 5 min and analyzed by video-tracking using SMART® (v3.0, PanLab, SLU, Spain).
Elevated Plus Maze (EPM): Movements were video-recorded for 5 min and analyzed by video-tracking using SMART® (v3.0, PanLab, SLU, Spain).

[3] = tested on: AR (h) (agonist radioligand); experiment: CEREP Diversity Panel; format: binding, human; design: dose or concentration left out as unconfirmed
Description: (§1) […]. MAO-A inhibition at 10 μM was 37%, in line with internal data.

[4] = tested on: ER (non-selective) (h) (agonist radioligand); experiment: CEREP Diversity Panel; format: binding, human; design: dose or concentration left out as unconfirmed
Description: as §1

Nc1nnc(CN[C@@H]2C[C@H]2c2ccc(OCc3ccccc3)cc2)o1 [ORY-2001, vafidemstat]
adduct formation with KDM1A [1]: adduct formation | anxiety and locomotor activity in the EPM [2]: did not produce any significant effect on anxiety or locomotor activity | % inhibition [3]: -2% | % inhibition [4]: 13%
